Where two headings read alike, the source gives them in different places.
Columns and labels:
[1] = tested on: Dengue-2 (Strain New Guinea C); experiment: Viral yield assay against Dengue-2 in Vero cells; type: cell-based, Dengue virus; settings: Dengue virus, read-out: Activity (EC50 in μM) DENV-2
Procedure, shortened: (§1)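 Yield reduction, Vero; MOI 0.1; compound vs DMSO; 37° C; harvest 48 h p.i.; titer on Vero; EC50 fitted. Other serotypes run the same way.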

DENV-1 = experiment: Viral yield assay against DENV-1 in Vero cells; type: cell-based; settings: Dengue virus
Procedure, shortened: as §1

DENV-3 = experiment: Viral yield assay against DENV-3 in Vero cells; type: cell-based; settings: Dengue virus
Procedure, shortened: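 Vero cells were infected with dengue-2 at MOI 0.1, treated with compound (DMSO control), and kept at 37° C. They were harvested 48 hours post infection and yield was titered on Vero cells. EC50 came from the yield curve, and the other serotypes were run in a similar way.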

DENV-4 = experiment: Viral yield assay against DENV-4 in Vero cells; type: cell-based; settings: Dengue virus
Procedure, shortened: as §1

[2] = DENV2, viral yield assay, Vero cells, MOI 0.1, 48 hours post infection

SMILES | EC50 ([1]; DENV2, Vero cells) | EC50 (DENV-1; DENV1) | EC50 (DENV-3; DENV3) | EC50 (DENV-4; DENV4) | EC50 [1, 2] | EC50 (DENV-1; DENV1, viral yield assay) | EC50 (DENV-3; DENV3, viral yield assay) | EC50 (DENV-4; DENV4, viral yield assay) | EC50 ([1]; DENV2, Vero, 48 h)
O=C(O)CNc1c(C(=O)Nc2nnc(-c3ccccc3)s2)sc2nc3c(cc12)CCCCC3 [Compound 293, 2-((2-((5-phenyl-1,3,4-thiadiazol-2-yl)carbamoyl)-6,7,8,9-tetrahydro-5H-cyclohepta[b]thieno[3,2-e]pyridin-3-yl)amino)acetic acid] | < 5 µM | < 5 µM | < 5 µM | < 5 µM | – | – | – | – | –
Nc1c(C(=O)Nc2cc(Cl)cc(Cl)c2)sc2nc(-c3cccs3)ccc12 [Compound 431, 3-amino-N-(3,5-dichloropehnyl)-6-(2-thienyl)thieno[2,3-b]pyridine-2-carboxamide] | – | – | – | – | < 5 µM | < 5 µM | < 5 µM | < 5 µM | –
C=CCSc1ccc(NC(=O)c2sc3nc(-c4cccc(OC)c4)ccc3c2N)cc1 [Compound 542, N-(4-allylsulfanylphenyl)-3-amino-6-(3-methoxyphenyl)thieno[2,3-b]pyridine-2-carboxamide] | – | – | – | – | < 5 µM | < 5 µM | < 5 µM | < 5 µM | –
N#Cc1c(O)nc2sc(C(=O)Nc3ccc(Br)cc3)c(N)c2c1-c1ccco1 [Compound 325, 3-amino-N-(4-bromophenyl)-5-cyano-4-(2-furyl)-6-hydroxy-thieno[2,3-b]pyridine-2-carboxamide] | – | – | – | – | < 5 µM | < 5 µM | < 5 µM | < 5 µM | –
Nc1c(C(=O)Nc2ccc(F)cc2)sc2nc(-c3ccc(F)cc3)ccc12 [Compound 490, 3-amino-N,6-bis(4-fluorophenyl) thieno[2,3-b]pyridine-2-carboxamide] | – | – | – | – | < 5 µM | < 5 µM | 5 to 25 µM | < 5 µM | –
Nc1c(C(=O)Nc2ccccc2)sc2nc(-c3cccs3)ccc12 [Compound 411, 3-amino-N-phenyl-6-(2-thienyl)thieno [2,3-b]pyridin-2-carboxamide] | – | – | – | – | – | < 5 µM | < 5 µM | < 5 µM | < 5 µM
Cc1ccc(NC(=O)c2sc3nc(-c4ccc5c(c4)OCO5)ccc3c2N)cc1Cl [Compound 529, 3-amino-6-(1,3-benzodioxol-5-yl)-N-(3-chloro-4-methyl-phenyl)thieno[2,3-b] pyridine-2-carboxamide] | – | – | – | – | < 5 µM | < 5 µM | < 5 µM | < 5 µM | –
Nc1c(C(=O)Nc2cc(Cl)ccc2Cl)sc2nc(-c3cccs3)ccc12 [Compound 433, 3-amino-N-(2,5-dichlorophenyl)-6-(2-thienyl)thieno[2,3-b]pyridine-2-carboxamide] | – | – | – | – | < 5 µM | < 5 µM | < 5 µM | < 5 µM | –
Nc1c(C(=O)Nc2ccc(OC(F)(F)F)cc2)sc2nc(-c3ccncc3)ccc12 [Compound 417, 3-amino-6-(4-pyridyl)-N-[4-(trifluoromethoxy)phenyl]thieno[2,3-b] pyridine-2-carboxamide] | – | – | – | – | < 5 µM | < 5 µM | < 5 µM | < 5 µM | –
Nc1c(C(=O)Nc2nnc(-c3ccccc3)s2)sc2nc(Cl)ccc12 [Compound 292] | – | – | – | – | < 5 µM | < 5 µM | < 5 µM | < 5 µM | –
CNCC(=O)Nc1c(C(=O)Nc2cccc(C(F)(F)F)c2)sc2nc(-c3cccs3)ccc12 [Compound 307, 3-[[2-(methylamino)acetyl]amino]-6-(2-thienyl)-N-[3-(trifluoromethyl)phenyl]thieno[2,3-b]pyridine-2-carboxamide] | < 5 µM | < 5 µM | < 5 µM | < 5 µM | – | – | – | – | –
Nc1c(C(=O)Nc2ccc(OC(F)F)cc2)sc2nc(-c3cccc(OC(F)F)c3)ccc12 [Compound 345, 3-amino-6-[3-(difluoromethoxy)phenyl]-N-[4-(difluoromethoxy)phenyl]thieno[2,3-b]pyridine-2-carboxamide] | – | – | – | – | < 5 µM | < 5 µM | < 5 µM | < 5 µM | –
COc1ccc(NC(=O)c2sc3nc(-c4ccc5c(c4)OCO5)ccc3c2N)c(OC)c1 [Compound 651, 3-amino-6-(1,3-benzodioxol-5-yl)-N-(2,4-dimethoxyphenyl)thieno[2,3-b]pyridine-2-carboxamide] | – | – | – | – | < 5 µM | < 5 µM | < 5 µM | < 5 µM | –
COc1cccc(-c2ccc3c(N)c(C(=O)Nc4cc(Cl)ccc4Cl)sc3n2)c1 [Compound 495, 3-amino-N-(2,5-dichlorophenyl)-6-(3-methoxyphenyl)thieno[2,3-b]pyridine-2-carboxamide] | – | – | – | – | < 5 µM | < 5 µM | < 5 µM | < 5 µM | –
COc1ccc(-c2ccc3c(N)c(C(=O)Nc4ccc(F)cc4)sc3n2)cc1 [Compound 491, 3-amino-N-(4-fluorophenyl)-6-(4-methoxyphenyl)thieno[2,3-b]pyridine-2-carboxamide] | – | – | – | – | – | > 25 µM | 5 to 25 µM | < 5 µM | < 5 µM
Nc1c(C(=O)Nc2ccc(Br)nc2)sc2nc(-c3ccc(Cl)cc3)ccc12 [Compound 336, 3-amino-N-(6-bromo-3-pyridyl)-6-(4-chlorophenyl)thieno [2,3-b]pyridine-2-carboxamide] | – | – | – | – | < 5 µM | < 5 µM | < 5 µM | < 5 µM | –
Nc1c(C(=O)Nc2ccc(F)c(F)c2)sc2nc(-c3cccs3)ccc12 [Compound 461, 3-amino-N-(3,4-difluorophenyl)-6-(2-thienyl)thieno[2,3-b]pyridine-2-carboxamide] | – | – | – | – | < 5 µM | < 5 µM | < 5 µM | < 5 µM | –
Nc1c(C(=O)Nc2ccc(C(F)(F)F)cc2)sc2nc(-c3ccc(F)cc3)ccc12 [Compound 455, 3-amino-6-(4-fluorophenyl)-N-[4-(trilfuoromethyl)phenyl]thieno[2,3-b] pyridine-2-carboxamide] | – | – | – | – | < 5 µM | < 5 µM | < 5 µM | 5 to 25 µM | –
Nc1c(C(=O)Nc2ccc(Cl)cc2)sc2nc(-c3ccc(F)cc3)ccc12 [Compound 620, 3-amino-N-(4-chlorophenyl)-6-(4-fluorophenyl)thieno[2,3-b]pyridine-2-carboxamide] | – | – | – | – | < 5 µM | < 5 µM | < 5 µM | < 5 µM | –
Nc1c(C(=O)Nc2ccc(Br)cn2)sc2nc(-c3ccc(Cl)cc3)ccc12 [Compound 335, 3-amino-N-(5-bromo-2-pyridyl)-6-(4-chlorophenyl)thieno [2,3-b]pyridine-2-carboxamide] | – | – | – | – | < 5 µM | < 5 µM | < 5 µM | < 5 µM | –
COc1ccc(-c2ccc3c(N)c(C(=O)Nc4ccc(Br)cc4F)sc3n2)cc1OC [Compound 628, 3-amino-N-(4-bromo-2-fluoro-phenyl)-6-(3,4-dimethoxyphenyl)thieno[2,3-b] pyridine-2-carboxamide] | – | – | – | – | < 5 µM | < 5 µM | < 5 µM | < 5 µM | –
O=C(O)CC(=O)Nc1c(C(=O)Nc2nnc(-c3ccccc3)s2)sc2nc(Cl)ccc12 [Compound 362, 3-[[6-chloro-2-[(5-phenyl-1,3,4-thiadiazol-2-yl)carbamoyl]thieno[2,3-b]pyridin-3-yl]amino]-3-oxo-propanoic acid] | 5 to 25 µM | 5 to 25 µM | > 25 µM | > 25 µM | – | – | – | – | –
Nc1c(C(=O)Nc2nnc(-c3ccccc3)s2)sc2nc(-c3cccs3)ccc12 [Compound 488, 3-amino-N-(5-phenyl-1,3,4-thiadiazol-2-yl)-6-(2-thienyl)thieno[2,3-b]pyridine-2-carboxamide] | – | – | – | – | < 5 µM | < 5 µM | < 5 µM | < 5 µM | –
COc1cccc(-c2ccc3c(N)c(C(=O)Nc4ccccc4SCC(C)C)sc3n2)c1 [Compound 571, 3-amino-N-(2-isobutylsulfanylphenyl)-6-(3-methoxyphenyl)thieno[2,3-b] pyridine-2-carboxamide] | – | – | – | – | < 5 µM | < 5 µM | < 5 µM | < 5 µM | –
COc1cccc(-c2ccc3c(N)c(C(=O)Nc4ccc(OC)cc4C)sc3n2)c1 [Compound 507, 3-amino-N-(4-methoxy-2-methyl-phenyl)-6-(3-methoxyphenyl)thieno[2,3-b] pyridine-2-carboxamide] | – | – | – | – | < 5 µM | < 5 µM | < 5 µM | < 5 µM | –
Nc1c(C(=O)Nc2ccc(F)c(F)c2)sc2nc(-c3cc(Cl)ccc3Cl)ccc12 [Compound 630, 3-amino-6-(2,5-dichlorophenyl)-N-(3,4-difluorophenyl)thieno[2,3-b]pyridine-2-carboxamide] | – | – | – | – | < 5 µM | < 5 µM | < 5 µM | < 5 µM | –
O=C(O)CC(=O)Nc1c(C(=O)Nc2nnc(-c3ccccc3)s2)sc2nc3c(cc12)CCCCC3 [Compound 295, 3-oxo-3-((2-((5-phenyl-1,3,4-thiadiazol-2-yl)carbamoyl)-6,7,8,9-tetrahydro-5H-cyclohepta[b]thieno[3,2-e]pyridin-3-yl)amino)propanoic acid] | < 5 µM | < 5 µM | < 5 µM | < 5 µM | – | – | – | – | –
COc1cccc(-c2ccc3c(N)c(C(=O)Nc4ccc(C)c(C)c4)sc3n2)c1 [Compound 546, 3-amino-N-(3,4-dimethylphenyl)-6-(3-methoxyphenyl)thieno[2,3-b]pyridine-2-carboxamide] | – | – | – | – | < 5 µM | < 5 µM | < 5 µM | < 5 µM | –
